Assay results published in patent US20230085307A1, “PYRIDAZINONE COMPOUND AND HERBICIDE” (NISSAN CHEMICAL CORPORATION, priority 2019, published 2023).

How the values were obtained:
[1] = system: chickweed; experiment: Test Example 4: herbicidal effect by soil treatment (Table 19, symbol P); assay type: in vivo, common chickweed (Stellaria media); settings: AAH 320 g/ha
In short: (§1)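 Herbicidal effect was rated 3 weeks after treatment, using the scoring criteria of an earlier test. The compound, formulated as an emulsion and diluted in water to a set herbicide amount, had been sprayed uniformly on soil over freshly sown seeds. Growth took place in a greenhouse at 25° C. to 30° C.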

[2] = system: redroot pigweed; experiment: Test Example 5: herbicidal effect by foliage application, plastic box (Table 20, symbol N); assay type: in vivo, redroot pigweed (Amaranthus retroflexus); settings: foliage application, AAH 320 g/ha, three weeks after application
In short: (§2)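 Foliar spray test: emulsion formulation diluted in water to a set application rate, sprayed onto 14-day-old plants raised in diluvial soil at 25° C to 30° C under glass. Both herbicidal effect and crop effect rated visually three weeks later.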

[3] = system: rice flat sedge; experiment: Test Example 3: herbicidal effect by foliage application, Wagner pot (Table 18, symbol E); assay type: in vivo, rice flat sedge (Cyperus iria); settings: 320 g/ha
In short: (§3)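 Plants were sown in alluvial soil held under 0.1–0.5 cm standing water and grown 14 days in a greenhouse at 25–30 °C. An emulsifiable formulation, water-diluted to the set dose, was then sprayed onto the foliage, and effects were scored three weeks later using previously defined criteria.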

[4] = system: velvetleaf; experiment: Test Example 5: herbicidal effect by foliage application, plastic box (Table 20, symbol M); assay type: in vivo, velvetleaf (Abutilon theophrasti); settings: foliage application, AAH 320 g/ha, three weeks after application
In short: as §2

[5] = system: green foxtail; experiment: Test Example 5: herbicidal effect by foliage application, plastic box (Table 20, symbol G); assay type: in vivo, green foxtail (Setaria viridis); settings: foliage application, AAH 320 g/ha, three weeks after application
In short: as §2

[6] = system: green foxtail; experiment: Test Example 4: herbicidal effect by soil treatment (Table 19, symbol G); assay type: in vivo, green foxtail (Setaria viridis); settings: AAH 320 g/ha
In short: as §1

[7] = system: redroot pigweed; experiment: Test Example 4: herbicidal effect by soil treatment (Table 19, symbol N); assay type: in vivo, redroot pigweed (Amaranthus retroflexus); settings: AAH 320 g/ha
In short: as §1

[8] = system: Italian ryegrass; experiment: Test Example 4: herbicidal effect by soil treatment (Table 19, symbol K); assay type: in vivo, Italian ryegrass (Lolium multiflorum); settings: AAH 320 g/ha
In short: as §1

[9] = system: Chinese sprangletop; experiment: Test Example 3: herbicidal effect by foliage application, Wagner pot (Table 18, symbol D); assay type: in vivo, chinese sprangletop (Leptochloa chinensis); settings: 320 g/ha
In short: as §3

[10] = system: southern crabgrass; experiment: Test Example 5: herbicidal effect by foliage application, plastic box (Table 20, symbol F); assay type: in vivo, southern crabgrass (Digitaria ciliaris); settings: foliage application, AAH 320 g/ha, three weeks after application
In short: as §2

[11] = system: wild oat; experiment: Test Example 5: herbicidal effect by foliage application, plastic box (Table 20, symbol I); assay type: in vivo, wild oat (Avena fatua); settings: foliage application, AAH 320 g/ha, three weeks after application
In short: as §2

[12] = system: velvetleaf; experiment: Test Example 4: herbicidal effect by soil treatment (Table 19, symbol M); assay type: in vivo, velvetleaf (Abutilon theophrasti); settings: AAH 320 g/ha
In short: as §1

[13] = system: lambsquarters; experiment: Test Example 4: herbicidal effect by soil treatment (Table 19, symbol O); assay type: in vivo, lambsquarters (Chenopodium album); settings: AAH 320 g/ha
In short: as §1

[14] = system: persian speedwell; experiment: Test Example 5: herbicidal effect by foliage application, plastic box (Table 20, symbol R); assay type: in vivo, Persian speedwell (Veronica persica); settings: foliage application, AAH 320 g/ha, three weeks after application
In short: as §2

[15] = system: southern crabgrass; experiment: Test Example 4: herbicidal effect by soil treatment (Table 19, symbol F); assay type: in vivo, southern crabgrass (Digitaria ciliaris); settings: AAH 320 g/ha
In short: as §1

[16] = system: barnyard grass; experiment: Test Example 5: herbicidal effect by foliage application, plastic box (Table 20, symbol H); assay type: in vivo, barnyard grass (Echinochloa crus-galli); settings: foliage application, AAH 320 g/ha, three weeks after application
In short: as §2

[17] = system: barnyard grass; experiment: Test Example 4: herbicidal effect by soil treatment (Table 19, symbol H); assay type: in vivo, barnyard grass (Echinochloa crus-galli); settings: AAH 320 g/ha
In short: as §1

[18] = system: chickweed; experiment: Test Example 5: herbicidal effect by foliage application, plastic box (Table 20, symbol P); assay type: in vivo, common chickweed (Stellaria media); settings: foliage application, AAH 320 g/ha, three weeks after application
In short: as §2

[19] = system: blackgrass; experiment: Test Example 4: herbicidal effect by soil treatment (Table 19, symbol J); assay type: in vivo, blackgrass (Alopecurus myosuroides); settings: AAH 320 g/ha
In short: as §1

[20] = system: wild oat; experiment: Test Example 4: herbicidal effect by soil treatment (Table 19, symbol I); assay type: in vivo, wild oat (Avena fatua); settings: AAH 320 g/ha
In short: as §1

[21] = system: persian speedwell; experiment: Test Example 4: herbicidal effect by soil treatment (Table 19, symbol R); assay type: in vivo, Persian speedwell (Veronica persica); settings: AAH 320 g/ha
In short: as §1

[22] = system: barnyard grass; experiment: Test Example 3: herbicidal effect by foliage application, Wagner pot (Table 18, symbol H); assay type: in vivo, barnyard grass (Echinochloa crus-galli); settings: 320 g/ha
In short: as §3

[23] = system: windgrass; experiment: Test Example 5: herbicidal effect by foliage application, plastic box (Table 20, symbol L); assay type: in vivo, windgrass (Apera spica-venti); settings: foliage application, AAH 320 g/ha, three weeks after application
In short: as §2

[24] = system: false cleavers; experiment: Test Example 4: herbicidal effect by soil treatment (Table 19, symbol Q); assay type: in vivo, false cleavers (Galium spurium); settings: AAH 320 g/ha
In short: as §1

[25] = system: lambsquarters; experiment: Test Example 5: herbicidal effect by foliage application, plastic box (Table 20, symbol O); assay type: in vivo, lambsquarters (Chenopodium album); settings: foliage application, AAH 320 g/ha, three weeks after application
In short: as §2

[26] = system: Italian ryegrass; experiment: Test Example 5: herbicidal effect by foliage application, plastic box (Table 20, symbol K); assay type: in vivo, Italian ryegrass (Lolium multiflorum); settings: foliage application, AAH 320 g/ha, three weeks after application
In short: as §2

[27] = system: blackgrass; experiment: Test Example 5: herbicidal effect by foliage application, plastic box (Table 20, symbol J); assay type: in vivo, blackgrass (Alopecurus myosuroides); settings: foliage application, AAH 320 g/ha, three weeks after application
In short: as §2

## COc1nn(C)c(=O)c(-c2c(-c3ccc(F)c(C)c3)sc3ccccc23)c1O [1-174]
[1]
  P: chickweed, herbicidal effect rating: 5 (Herbicidal rate of 90% or more (almost completely withered))
[2]
  N: redroot pigweed, herbicidal effect: 0 (Herbicidal rate of 5% or less (almost no effect))
[3]
  herbicidal effect on E (rice flat sedge), rating 0-5: 3 (Herbicidal rate of 40% or more and less than 70%)
[4]
  M: velvetleaf, herbicidal effect: 4 (Herbicidal rate of 70% or more and less than 90%)
[5]
  G: green foxtail, herbicidal effect: 2 (Herbicidal rate of 20% or more and less than 40%)
[6]
  G: green foxtail, herbicidal effect rating: 0 (Herbicidal rate of 5% or less (almost no effect))
[7]
  N: redroot pigweed, herbicidal effect rating: 0 (Herbicidal rate of 5% or less (almost no effect))
[8]
  K: Italian ryegrass, herbicidal effect rating: 0 (Herbicidal rate of 5% or less (almost no effect))
[9]
  herbicidal effect on D (Chinese sprangletop), rating 0-5: 0 (Herbicidal rate of 5% or less (almost no effect))
[10]
  F: southern crabgrass, herbicidal effect: 0 (Herbicidal rate of 5% or less (almost no effect))
[11]
  I: wild oat, herbicidal effect: 0 (Herbicidal rate of 5% or less (almost no effect))
[12]
  M: velvetleaf, herbicidal effect rating: 0 (Herbicidal rate of 5% or less (almost no effect))
[13]
  O: lambsquarters, herbicidal effect rating: 0 (Herbicidal rate of 5% or less (almost no effect))
[14]
  R: persian speedwell, herbicidal effect: 4 (Herbicidal rate of 70% or more and less than 90%)
[15]
  F: southern crabgrass, herbicidal effect rating: 0 (Herbicidal rate of 5% or less (almost no effect))
[16]
  H: barnyard grass, herbicidal effect: 0 (Herbicidal rate of 5% or less (almost no effect))
[17]
  H: barnyard grass, herbicidal effect rating: 0 (Herbicidal rate of 5% or less (almost no effect))
[18]
  P: chickweed, herbicidal effect: 5 (Herbicidal rate of 90% or more (almost completely withered))
[19]
  J: blackgrass, herbicidal effect rating: 0 (Herbicidal rate of 5% or less (almost no effect))
[20]
  I: wild oat, herbicidal effect rating: 0 (Herbicidal rate of 5% or less (almost no effect))
[21]
  R: persian speedwell, herbicidal effect rating: 4 (Herbicidal rate of 70% or more and less than 90%)
[22]
  herbicidal effect on H (barnyard grass), rating 0-5: 1 (Herbicidal rate of 5% or more and less than 20%)
[23]
  L: windgrass, herbicidal effect: 0 (Herbicidal rate of 5% or less (almost no effect))
[24]
  Q: false cleavers, herbicidal effect rating: 0 (Herbicidal rate of 5% or less (almost no effect))
[25]
  O: lambsquarters, herbicidal effect: 2 (Herbicidal rate of 20% or more and less than 40%)
[26]
  K: Italian ryegrass, herbicidal effect: 1 (Herbicidal rate of 5% or more and less than 20%)
[27]
  J: blackgrass, herbicidal effect: 0 (Herbicidal rate of 5% or less (almost no effect))
